Among the data in the supplement of paper PMC10307832 are relative viability values, retold here.

Common to all, as to experiment: relative viability (nuclei count vs DMSO), 5 days (fraction); higher = more cells survive
Compound in experiment [1]: C/C(=N\NC(=S)N1CCC1)/C2=CC=CC=N2 + COc1cccc2cc(-c3nc([C@H]4CC[C@H](C(=O)O)CC4)n4ncnc(N)c34)[nH]c12 [OSI-027] (partner 0.5 µM)
Put shortly: (§1)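 For relative viability, nuclei counts in treated wells were divided by those in vehicle wells. Lung cancer cell lines had been pin-tool dosed in 1536-well plates the day after seeding and cultured for 5 days, then fixed and stained in one step (final 0.05% Triton X-100, 1% formaldehyde, 1 ug/ml Hoechst) and imaged at 4×. Doses were one drug alone or a fixed anchor-drug dose plus five library-drug doses (not always all listed) in √10 steps, and values are duplicate-plate medians.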

Compound in experiment [2]: C/C(=N\NC(=S)N1CCC1)/C2=CC=CC=N2 + CC(=O)Nc1cccc(-n2c(=O)n(C3CC3)c(=O)c3c(Nc4ccc(I)cc4F)n(C)c(=O)c(C)c32)c1 [Trametinib] (partner 0.02 µM)
Put shortly:
as §1

Compound in experiment [3]: C/C(=N\NC(=S)N1CCC1)/C2=CC=CC=N2 + C[C@]1(O)C[C@@H](c2nc(-c3ccc4ccc(-c5ccccc5)nc4c3)c3c(N)nccn32)C1 [Linsitinib] (partner 1 µM)
Put shortly:
as §1

Compound in experiment [4]: C/C(=N\NC(=S)N1CCC1)/C2=CC=CC=N2 + CS(=O)(=O)CCNCc1ccc(-c2ccc3ncnc(Nc4ccc(OCc5cccc(F)c5)c(Cl)c4)c3c2)o1 [Lapatinib] (partner 2 µM)
In outline:
as §1

Take NCI-H2085: the relative viability in experiment [1] (first compound 0.05 µM) amounted to 0.276; in experiment [1] (first compound 0.1581 µM) it was 0.214; in experiment [1] (first compound 0.5 µM), 0.255; in experiment [1] (first compound 1.581 µM), 0.24; in experiment [1] (first compound 5 µM), 0.187; in experiment [2] (first compound 0.05 µM) it was 0.183. Besides, the relative viability in experiment [2] (first compound 0.1581 µM) is 0.19; in experiment [2] (first compound 0.5 µM), 0.216; in experiment [2] (first compound 1.581 µM), 0.153; in experiment [2] (first compound 5 µM) it was 0.224; in experiment [3] (first compound 0.05 µM), 0.222; in experiment [3] (first compound 0.1581 µM), 0.307. In addition, the relative viability in experiment [3] (first compound 0.5 µM) is 0.242; in experiment [3] (first compound 1.581 µM), 0.223; in experiment [3] (first compound 5 µM) it was 0.215; in experiment [4] (first compound 0.05 µM) it was 0.341; in experiment [4] (first compound 0.1581 µM), 0.365; in experiment [4] (first compound 0.5 µM), 0.335. The relative viability in experiment [4] (first compound 1.581 µM) is 0.271; in experiment [4] (first compound 5 µM) it was 0.325.

As for NCI-H2087, the relative viability turned out to be 0.132 in experiment [1] (first compound 0.05 µM); 0.14 in experiment [1] (first compound 0.1581 µM); 0.143 in experiment [1] (first compound 0.5 µM); 0.122 in experiment [1] (first compound 1.581 µM); 0.0904 in experiment [1] (first compound 5 µM); 0.104 in experiment [2] (first compound 0.05 µM). Further, the relative viability in experiment [2] (first compound 0.1581 µM) amounted to 0.123; in experiment [2] (first compound 0.5 µM), 0.11; in experiment [2] (first compound 1.581 µM), 0.108; in experiment [2] (first compound 5 µM), 0.0815; in experiment [3] (first compound 0.05 µM), 0.305; in experiment [3] (first compound 0.1581 µM) it was 0.37. Further, the relative viability in experiment [3] (first compound 0.5 µM) is 0.301; in experiment [3] (first compound 1.581 µM), 0.244; in experiment [3] (first compound 5 µM) it was 0.178; in experiment [4] (first compound 0.05 µM), 0.196; in experiment [4] (first compound 0.1581 µM) it was 0.268; in experiment [4] (first compound 0.5 µM), 0.224. Moreover, the values for the relative viability in experiment [4] (first compound 1.581 µM) and in experiment [4] (first compound 5 µM) were 0.195 and 0.143, respectively.

As to NCI-H2126, the relative viability in experiment [1] (first compound 0.05 µM) was determined as 0.206; in experiment [1] (first compound 0.1581 µM), 0.225; in experiment [1] (first compound 0.5 µM) it was 0.21; in experiment [1] (first compound 1.581 µM) it was 0.212; in experiment [1] (first compound 5 µM), 0.205; in experiment [2] (first compound 0.05 µM), 0.299. Further, the relative viability stood at 0.574 in experiment [2] (first compound 0.1581 µM); 0.189 in experiment [2] (first compound 0.5 µM); 0.183 in experiment [2] (first compound 1.581 µM); 0.23 in experiment [2] (first compound 5 µM); 0.277 in experiment [3] (first compound 0.05 µM); 0.724 in experiment [3] (first compound 0.1581 µM). For the same cell line, the relative viability was determined as 0.268 in experiment [3] (first compound 0.5 µM); 0.223 in experiment [3] (first compound 1.581 µM); 0.246 in experiment [3] (first compound 5 µM); 0.242 in experiment [4] (first compound 0.05 µM); 0.272 in experiment [4] (first compound 0.1581 µM); 0.249 in experiment [4] (first compound 0.5 µM). For the same cell line, the relative viability in experiment [4] (first compound 1.581 µM) was found to be 0.236; in experiment [4] (first compound 5 µM), 0.241.

Regarding NCI-H2228, the relative viability in experiment [1] (first compound 0.05 µM) is 0.116; in experiment [1] (first compound 0.1581 µM), 0.152; in experiment [1] (first compound 0.5 µM) it was 0.207; in experiment [1] (first compound 5 µM), 0.0944; in experiment [2] (first compound 0.05 µM), 0.124; in experiment [2] (first compound 0.1581 µM), 0.151. The relative viability in experiment [2] (first compound 0.5 µM) amounted to 0.137; in experiment [2] (first compound 1.581 µM), 0.0911; in experiment [2] (first compound 5 µM) it was 0.135; in experiment [3] (first compound 0.05 µM) it was 0.179; in experiment [3] (first compound 0.1581 µM), 0.273; in experiment [3] (first compound 0.5 µM), 0.233. For the same cell line, the relative viability in experiment [3] (first compound 1.581 µM) came out at 0.144; in experiment [3] (first compound 5 µM) it was 0.213; in experiment [4] (first compound 0.05 µM), 0.144; in experiment [4] (first compound 0.1581 µM), 0.162; in experiment [4] (first compound 0.5 µM), 0.136; in experiment [4] (first compound 1.581 µM) it was 0.0958. Further, in experiment [4] (first compound 5 µM), the relative viability is 0.139.

For the cell line NCI-H2347, the relative viability in experiment [1] (first compound 0.05 µM) turned out to be 0.242; in experiment [1] (first compound 0.1581 µM) it was 0.208; in experiment [1] (first compound 0.5 µM) it was 0.255; in experiment [1] (first compound 1.581 µM), 0.234; in experiment [1] (first compound 5 µM) it was 0.218; in experiment [2] (first compound 0.05 µM), 0.247. Also, the relative viability in experiment [2] (first compound 0.1581 µM) was 0.271; in experiment [2] (first compound 0.5 µM) it was 0.244; in experiment [2] (first compound 1.581 µM), 0.294; in experiment [2] (first compound 5 µM), 0.227; in experiment [3] (first compound 0.05 µM), 0.295; in experiment [3] (first compound 0.1581 µM), 0.372. The relative viability stood at 0.325 in experiment [3] (first compound 0.5 µM); 0.255 in experiment [3] (first compound 1.581 µM); 0.314 in experiment [3] (first compound 5 µM); 0.401 in experiment [4] (first compound 0.05 µM); 0.394 in experiment [4] (first compound 0.1581 µM); 0.324 in experiment [4] (first compound 0.5 µM). Also, the values for the relative viability in experiment [4] (first compound 1.581 µM) and in experiment [4] (first compound 5 µM) were 0.294 and 0.541, respectively.

Regarding NCI-H2405, the relative viability was determined as 0.26 in experiment [1] (first compound 0.05 µM); 0.238 in experiment [1] (first compound 0.1581 µM); 0.229 in experiment [1] (first compound 0.5 µM); 0.226 in experiment [1] (first compound 1.581 µM); 0.24 in experiment [1] (first compound 5 µM); 0.236 in experiment [2] (first compound 0.05 µM). The relative viability in experiment [2] (first compound 0.1581 µM) was found to be 0.278; in experiment [2] (first compound 0.5 µM), 0.24; in experiment [2] (first compound 1.581 µM) it was 0.239; in experiment [2] (first compound 5 µM), 0.3; in experiment [3] (first compound 0.05 µM) it was 0.193; in experiment [3] (first compound 0.1581 µM), 0.207. Moreover, the relative viability in experiment [3] (first compound 0.5 µM) was 0.31; in experiment [3] (first compound 1.581 µM) it was 0.225; in experiment [3] (first compound 5 µM) it was 0.223; in experiment [4] (first compound 0.05 µM) it was 0.251; in experiment [4] (first compound 0.1581 µM) it was 0.236; in experiment [4] (first compound 0.5 µM), 0.263. The relative viability was determined as 0.25 in experiment [4] (first compound 1.581 µM) and 0.281 in experiment [4] (first compound 5 µM).

For the cell line NCI-H3122, the relative viability in experiment [1] (first compound 0.05 µM) is 0.138; in experiment [1] (first compound 0.1581 µM), 0.0988; in experiment [1] (first compound 0.5 µM) it was 0.132; in experiment [1] (first compound 1.581 µM), 0.134; in experiment [1] (first compound 5 µM) it was 0.129; in experiment [2] (first compound 0.05 µM), 0.0866. Moreover, the relative viability was 0.159 in experiment [2] (first compound 0.1581 µM); 0.0947 in experiment [2] (first compound 0.5 µM); 0.116 in experiment [2] (first compound 1.581 µM); 0.125 in experiment [2] (first compound 5 µM); 0.145 in experiment [3] (first compound 0.05 µM); 0.143 in experiment [3] (first compound 0.1581 µM). Moreover, the relative viability worked out at 0.169 in experiment [3] (first compound 0.5 µM); 0.246 in experiment [3] (first compound 1.581 µM); 0.221 in experiment [3] (first compound 5 µM); 0.304 in experiment [4] (first compound 0.05 µM); 0.284 in experiment [4] (first compound 0.1581 µM); 0.268 in experiment [4] (first compound 0.5 µM). Besides, the relative viability was 0.291 in experiment [4] (first compound 1.581 µM) and 0.243 in experiment [4] (first compound 5 µM).
